Source: US20260335282A1, “NOVEL 3-ARYLIDENE-2-INDOLINONE DERIVATIVES FOR THERAPEUTIC USE” (ISTANBUL UNIVERSITESI REKTORLUGU, priority 2022, published 2026)
Where “and” joins values, the source holds several entries; their conditions need not be identical. Equal values may be shown once. Read-outs that look alike come from different tables or passages of the source.

Assays:
Format in all cases: cell-based, human
[1] = tested on: A549 cells; test: MTT cytotoxicity, lung cancer cells A549; settings: no * mark (incubation time not specified)
Excerpt: (§1) The cytotoxicity, general tyrosine kinase inhibitory effects and cell death (apoptosis/necrosis) assays of 1-benzyl-3-(1H-indol-3-ylmethylidene)-1,3-dihydro-2H-indol-2-one derivatives (Formula 5) of the present invention are studied by the following methods. […] HUVEC (human umbilical vein endothelial cell), MCF-10F (human breast epithelial cell) and Beas2b (human lung bronchial epithelial cell) cell lines have been used as healthy control cells in MTT experiments.
(§2) Beas2b (human lung bronchiole epithelial cell) and HEK293 (renal tubule epithelium) cells used as normal cell lines were cultured in RPMI medium, and HUVEC (human umbilical cord endothelial cells) and MCF-10F (human breast epithelial cell) cells are cultured in DMEM medium containing 100 µg/ml penicillin/streptomycin. The cells, which covered 70% of the culture flask, are washed with phosphate buffer and then removed from the surface of the flask by application of trypsin-ethylenediamine tetraacetic acid (Trypsin-EDTA; 0.25%) solution, passaged, counted and seeded on appropriate plates before each experiment. Cells are treated with a total of 45 2-indolinone compounds (5) at concentrations of 0.1, 1, 5 and 10 μM. Stock compounds are prepared in 1 ml dimethylsulfoxide (DMSO) and 4 different dilutions were prepared with medium and performed to the cells. Control group cells are treated with DMSO at a similar concentration to the experimental groups.
(§3) MTT (3-(4,5-dimethylthiazol-2-yl)-2,5-diphenyl-2H-tetrazolium bromide) colorimetric assay provides quantitation of viable cells with ongoing mitochondrial activity in culture medium. According to the standard procedure in cell culture conditions, cells are maintained in RPMI-1640 and DMEM culture media containing 10% FBS and 1% penicillin/streptomycin. The trypan blue test is used for cell counts.
(§4) The effects of 45 2-indolinone compounds (5) on cell viability in all cancer cell lines are investigated by MTT assay. Cells are seeded in a 96-well flat bottom plate with 5000 cells in each well and 2-indolinone compounds (5) at concentrations of 0.1, 1, 5 and 10 μM are performed to the cells the next day. After 48 and/or 72 hours following treatment with 2-indolinone compounds, 50 μl of the supernatant is slowly discarded (as it was acid medium) and MTT at a concentration of 5 mg/ml is added to each well in a volume of 10 μl. After incubation for 4 hours, the formazan crystals formed in the wells are dissolved by adding 100 μl DMSO and the optical density is read at 570 nm test wavelength and 630 nm reference wavelength. Cell viability is expressed as % cell viability by comparing the absorbance of control and test wells. IC50 value is calculated from the dose-response curves prepared for each compound. In addition, the possible DMSO effect is eliminated by preparing negative control wells compatible with the amount of DMSO contained in the compounds. To understand the reaction of the compounds with MTT, cell-free (MTT+compounds) negative controls are prepared at the concentrations used (Mosmann, 1983). […] The absorbance values obtained are compared to the control and statistically evaluated by unpaired t-test using “Graphpad Prism 5.04” software. “P<0.05” is accepted as significant. When evaluating cytotoxic effects, the present inventors aim for the inventive compounds to be effective in cancer cells and ineffective in healthy cells. The inventive compounds have also been compared with sunitinib, one of the reference chemotherapy drugs currently used in treatment.
(§5) Among the compounds of the present invention, those that killed cancer cells by at least 50% (p<0.05) are selected and tested whether a 10-fold concentration of the M concentration at the IC50 value is toxic to normal healthy cells.

[2] = tested on: MCF-7 cells; test: MTT cytotoxicity, breast cancer cells MCF-7; settings: MTT
Excerpt: as §1, §2, §3, §4, §5

[3] = tested on: MIAPaCa-2 cells; test: MTT cytotoxicity, pancreas cancer cells MIAPaCa-2; settings: MTT
Excerpt: as §1, §2, §3, §4

[4] = tested on: HT-29 cells; test: MTT cytotoxicity, colon cancer cells HT-29; settings: MTT, no * mark (incubation time not specified)
Excerpt: as §1, §2, §3, §4

[5] = tested on: MDA-MB-231 cells; test: MTT cytotoxicity, breast cancer cells MDA-MB-231; settings: read-out: IC50, MDA-MB-231 (breast), MTT
Excerpt: as §1, §2, §3, §4, §5

[6] = tested on: MCF-10F/Beas2b cells; test: MTT cytotoxicity, healthy cells MCF-10F/Beas2b; settings: for IC50: MTT; for Selectivite Index, MCF-10F/Beas2b (Table 2): MCF-10F/Beas2b vs colon or pancreas cancer cells
Excerpt: as §1, §2, §3, §4, §5

[7] = tested on: A498 cells; test: MTT cytotoxicity, kidney cancer cells A498; settings: MTT
Excerpt: as §1, §2, §3, §4, §5

[8] = tested on: HCT-116 cells; test: MTT cytotoxicity, colon cancer cells HCT-116; settings: no * mark (incubation time not specified)
Excerpt: as §1, §2, §3, §4

[9] = tested on: CAKI-1 cells; test: MTT cytotoxicity, kidney cancer cells CAKI-1
Excerpt: as §1, §2, §3, §4, §5

[10] = tested on: HUVEC cells; test: MTT cytotoxicity, healthy cells HUVEC; settings: for IC50: MTT; for Selectivite Index, HUVEC (Table 2): HUVEC vs colon or pancreas cancer cells
Excerpt: as §1, §2, §3, §4, §5

[11] = no * mark (incubation time not specified)
[12] = *: effective 72 hours after incubation
[13] = no * mark (incubation time not given)

Structure (SMILES)	IC50 [1] [µM]	IC50 [2, 11] [µM]	IC50 [3, 12] [µM]	IC50 [4] [µM]	IC50 [5, 13] [µM]	IC50 [6, 11] [µM]	IC50 [7, 11] [µM]	IC50 [8] [µM]	IC50 [9, 12] [µM]	IC50 [10, 11] [µM]	IC50 [3, 11] [µM]	IC50 [7, 12] [µM]	IC50 [9, 11] [µM]	further results
O=C1/C(=C\c2c[nH]c3ccccc23)c2cc(OC(F)(F)F)ccc2N1Cc1cccc(F)c1 [2C]	3.58	8.82	7.35	> 10	2.91	3.07	4.78	2.88	5.46	2.56				
O=C1/C(=C\c2c[nH]c3ccccc23)c2cccc(F)c2N1Cc1ccc(F)cc1 [31C]	3.64	7.1		3.95		4.42	2.85	0.39	9.14	1.26	0.73			IC50 [5, 12]: 9.09 µM; Selectivite Index, MCF-10F/Beas2b (Table 2) ([6]; cancer line not given): 11.33 and 6.05; Selectivite Index, HUVEC (Table 2) ([10]; cancer line not given): 3.23 and 1.72
Cc1cccc(CN2C(=O)/C(=C\c3c[nH]c4ccccc34)c3cc(C)ccc32)c1 [48C]	3			1.46	> 10	3.35		0.6	3.46	1.07	2.02	0.73		IC50 [2, 12]: 3.96 µM; IC50 [6, 12]: 3.35 µM
O=C1/C(=C\c2c[nH]c3ccccc23)c2cccc(Cl)c2N1Cc1cccc(Cl)c1 [25C]	> 10	4.5	3.23	> 10	> 10	1.81	2.91	2.9	8.07	1.81				
Cc1ccc2c(c1)/C(=C/c1c[nH]c3ccccc13)C(=O)N2Cc1ccc(F)cc1 [45C]	2.22	> 10		> 10	> 10			0.47	4.91	2.62	> 10	0.78		Selectivite Index, MCF-10F/Beas2b (Table 2) ([6]; cancer line not given): 6.14; IC50 [6, 12]: 2.89 µM; Selectivite Index, HUVEC (Table 2) ([10]; cancer line not given): 5.57
Cc1cccc(CN2C(=O)C(=Cc3c[nH]c4ccccc34)c3cccc(F)c32)c1 [34C]	4.7	> 10		> 10	> 10	4.1	3.64	0.64		1.69	> 10		7.61	
Cn1cc(/C=C2\C(=O)N(Cc3ccccc3)c3ccccc32)c2ccccc21 [Y12]	> 10	> 10		> 10	> 10		> 10	1.46		> 10	> 10		> 10	
O=C1/C(=C\c2c[nH]c3ccccc23)c2cccc(F)c2N1Cc1cccc(Cl)c1 [32C]	> 10	3.86		1.65	4.53	1.35	8.26	4.31	8.76		1.35			IC50 [10, 12]: 1 µM
O=C1/C(=C\c2c[nH]c3ccccc23)c2cccc(F)c2N1Cc1ccccc1 [29C]	> 10	4.35		> 10	> 10		> 10	> 10			> 10		4.12	IC50 [10, 12]: 0.95 µM
O=C1/C(=C\c2c[nH]c3ccccc23)c2cc(F)ccc2N1Cc1ccc(F)cc1 [10C]	3.49	> 10		2.29		2.99	3.81	3.96	6.69	4.65	2.77			IC50 [5, 12]: 8.13 µM
O=C1/C(=C\c2c[nH]c3ccccc23)c2cccc(Cl)c2N1Cc1cccc(F)c1 [23C]	> 10	3.07	> 10	> 10	> 10		8.33	> 10		> 10			4.88	
O=C1/C(=C\c2c[nH]c3ccccc23)c2cc(Cl)cc(Cl)c2N1Cc1ccccc1 [36C]	2.35	> 10		> 10	> 10			2.51	4.01	2.24	0.46	1.46		Selectivite Index, MCF-10F/Beas2b (Table 2) ([6]; cancer line not given): 7.83; IC50 [6, 12]: 3.6 µM; Selectivite Index, HUVEC (Table 2) ([10]; cancer line not given): 4.87
O=C1/C(=C\c2c[nH]c3ccccc23)c2cc(OC(F)(F)F)ccc2N1Cc1ccc(F)cc1 [3C]	4.22	5.06	0.95	1.38	2.27	2.98		5.74		4.3		7.53	3.7	
Cc1ccc(CN2C(=O)/C(=C\c3c[nH]c4ccccc34)c3cccc(Cl)c32)cc1 [28C]	> 10	> 10		> 10	> 10			> 10	7.66	> 10	> 10	0.6		Selectivite Index (SI), MCF-10F/Beas2b (Table 1) ([6]; MCF-10F/Beas2b vs breast or kidney cancer cells, cancer line not given): 1.5; IC50 [6, 12]: 1.78 µM; Selectivite Index (SI), HUVEC (Table 1) ([10]; HUVEC vs breast or kidney cancer cells, cancer line not given): > 15.6
Cc1cccc(CN2C(=O)/C(=C\c3c[nH]c4ccccc34)c3ccccc32)c1 [50C]	4.6			1.49	4.3	4.37		0.5		0.86	2.96	3.85	4.96	IC50 [2, 12]: 4.15 µM; Selectivite Index, MCF-10F/Beas2b (Table 2) ([6]; cancer line not given): 8.74; Selectivite Index, HUVEC (Table 2) ([10]; cancer line not given): 1.72
O=C1/C(=C\c2c[nH]c3ccccc23)c2cccc(Cl)c2N1Cc1ccc(Cl)cc1 [26C]	> 10	3.55	> 10	> 10	> 10		6.92	> 10		> 10			4.5	
O=C1/C(=C\c2c[nH]c3ccccc23)c2cc(F)ccc2N1Cc1cccc(Cl)c1 [11C]	> 10	> 10	> 10	> 10	7.25		> 10	> 10		> 10			9.81	
Cc1cccc(CN2C(=O)/C(=C\c3c[nH]c4ccccc34)c3cc(OC(F)(F)F)ccc32)c1 [6C]	> 10	4.72	> 10	> 10	9.87		> 10	> 10		> 10			9.66	
Cc1ccc2c(c1)/C(=C/c1cn(C)c3ccccc13)C(=O)N2Cc1ccccc1 [Y13]	> 10	> 10		3.37	> 10		> 10	4.58		3.37	2.2		> 10	
